Test results: US20250099411A1, “Methods of Treatment of Inflammation Related Conditions Using Pluripotent Anti-Inflammatory and Metabolic Modulators” (Institut Pasteur de Montevideo, priority 2018, published 2025)

Columns and labels:
[1] = system: Nrf2/Keap I-dependent gene expression; experiment: Nrf2/Keap I-dependent phase two enzyme gene expression (HO-I, GCLM, NQO I qPCR) in Hep G2 cells; type: cell-based; conditions: Hep G2, five hours, SANA 0.1 mM, Salicylic Acid 0.2 and 5 mM
Experimental: FIGS. 6 and 7 show induction of phase two enzymes Nrf2/Keap I-dependent gene expression by SANA but not by SA Hep G2 cells were treated with SANA (0.1 mM) or Salicylic Acid (0.2 and 5 mM) for five hours. mRNA was extracted from the cells and was measured HO-I, GCLM and NQO I gene expression by qPCR.

[2] = system: inflammasome; experiment: Inflammasome inhibition (IL-lb ELISA) in THP-1 cells differentiated into macrophages, LPS then ATP; type: cell-based, human; conditions: for inhibition of the inflammasome (IL-lb), applied with the second signal: together with ATP (5 mM, 45 minutes) after LPS, SANA 0.05-0.25 mM, SA 0.25 mM; for inhibition of the inflammasome (IL-lb), applied with the first signal: together with LPS (250 ng/ml, 3 hs.), then ATP 5 mM 45 minutes, SANA 0.05-0.25, SA 0.25 mM
Experimental: In FIGS. 8 and 9 show the inhibition of inflammasome in THP-1 cells differentiated into macrophages (PMA 200 nM, 48 hs.) by SANA but not by SA when applied together with the first (FIG. 8) or the second (FIG. 9) signal. In FIG. 8 cells were treated with Salicylic acid (0.25 mM) or SANA (0.05; 0.125 and 0.25) together with LPS stimulation. The cells were stimulated with LPS (250 ng/ml, 3 hs.) and then with ATP (5 mM, 45 minutes). Supernatant was collected and IL-lb measured by ELISA Cell viability was assessed by MTT assay. […] In FIG. 9 THP-1 cells were differentiated into macrophages with PMA (200 nM, 48 hs.). Cells were stimulated with LPS (250 ng/ml, 3 hs.) and then with ATP (5 mM, 45 minutes). Together with ATP treatment, cells were then treated with NAT×ME (10 uM), Salicylic acid (0.25 mM) or SANA (0.05; 0.125 and 0.25 mM). Supernatant was collected and IL-lb secretion was measured by ELISA Cell viability was assessed by the MTT assay.

[3] = Stopped-flow kinetics of the reaction with BME; type: physicochemical; conditions: 25° C., triplicate, BME 0.54-2.73 mM, absorbance at 260 nm
Experimental: In FIG. 2, it is shown that the reaction between SANA and BME was determined to be a second order rate constant. Stopped-flow kinetic measurements were performed using an Rx 2000 stopped flow analyzer (Applied Photophysics). Mixtures of 150 μL NATx0 (25 μM) and solutions of BME at 0.54 mM, 1.09 mM, 1.64 mM, 2.18 mM, and 2.73 mM concentrations.
The reaction was monitored by following the absorbance at 260 nm and plots were fitted to a simple exponential decay function using Originlab software (version 8.0.). The observed pseudo first order constant at each concentration of BME was extracted from the equation and plotted against the concentration of BME. The second rate constant of the reaction is derived from the slope of the curve and was 182±6 M·^1s·^1. All experiments were carried out at 25° C. by triplicate.

[4] = system: 11-lb secretion; experiment: LPS-induced 11-lb secretion into the peritoneum in vivo
[5] = Glucose tolerance test in HFD obese mice; type: in vivo; conditions: mice under HFD up to 7 months, 100 mg/kg gavage every day during four weeks
Experimental: Mice under HFD for up to 7 months (mean weight around 40 gr.) were treated with SANA (100 mg/kg; gavage) or phosphate buffer (control) every day during four weeks. The glucose tolerance test were run as per well-known standard procedures.

[6] = biological target: GAPDH (Homo sapiens, UniProt P04406); experiment: GAPDH activity; type: biochemical
Chain of GAPDH (P04406 whole entry, species assumed): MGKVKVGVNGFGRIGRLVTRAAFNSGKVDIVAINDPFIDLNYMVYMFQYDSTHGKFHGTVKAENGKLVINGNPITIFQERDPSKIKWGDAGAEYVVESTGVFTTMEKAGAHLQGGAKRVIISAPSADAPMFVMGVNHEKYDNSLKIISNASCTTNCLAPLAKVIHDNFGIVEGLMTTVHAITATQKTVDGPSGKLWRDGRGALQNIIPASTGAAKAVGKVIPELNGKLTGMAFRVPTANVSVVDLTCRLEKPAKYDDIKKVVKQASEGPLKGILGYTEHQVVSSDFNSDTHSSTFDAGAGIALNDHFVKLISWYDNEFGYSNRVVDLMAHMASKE

[7] = Skin allograft rejection, male tail skin grafted onto female mice; type: in vivo, C57BL/6 mice; conditions: 100 mg/kg oral gavage daily, day -1 to day 15
Experimental: C57BL/6 female mice were grafted with skin from the tails of C57BL/6 male mice. The skin graft is a small'square (1 cm^2 and it was implanted onto the left subscapular region of the female mice. From one day before the transplantation until 15 days after it, the mice were treated daily with SANA (100 mg/kg, by oral gavage; SANA group) or vehicle (Control group). The vehicle used was a solution of Carboxy-Methyl-cellulose 0.5% m/v and Tween 80 0.5% v/v. At the end of the 15th day of administration, allografts were checked every 48/72 hours to assess the condition of the grafted skin. Rejection was diagnosed clinically when the allograft lost more than 50% of its size and/or more than I 0% of allograft was necrotic.
The study followed the protocol described above for FIG. I, but further included a Salicylate group. C57BL/6 female mice were grafted with skin from the tails of C57BL/6 male mice. The skin graft is a small square (1 cm^2 and it was implanted onto the left subscapular region of the female mice. From one day before the transplantation until 15 days after it, the mice were treated daily with Salicylate (100 mg/kg, by oral gavage; Salicylate group), SANA (100 mg/kg, by oral gavage; SANA group) or vehicle (Control group). The vehicle used was a solution of
Carboxy-Methyl-cellulose 0.5% m/v and Tween 80 0.5% v/v. […]

[8] = Body weight of mice fed a high-fat diet; type: in vivo
Description: (§1) While not wishing to be bound by theory, thermogenesis and weight loss are a result of AMPK activation together with white adipose tissue and mitochondrial uncoupling. […] SANA's beneficial effects also include reducing adverse effects related to obesity. […] FIGS. 22 and 23, compare the body temperatures of mice on normal diets (“ND”), HFD, and HFD with administration of SANA.

[9] = Magnetic resonance imaging (MRI) of fat content; type: in vivo; conditions: mice
Description: as §1

[10] = Thermogenesis / body temperature of mice on HFD; type: in vivo
Description: as §1

[11] = Thermogenesis and weight loss in mice on a normal diet; type: in vivo
Description: as §1

Row | Compound | induction of phase two enzymes Nrf2/Keap I-dependent gene expression [1] | inhibition of the inflammasome (IL-lb), applied with the second signal [2] | inhibition of the inflammasome (IL-lb), applied with the first signal [2] | second rate constant of the reaction with BME [3] [M·^1s·^1] | LPS-induced 11-lb secretion into the peritoneum [4] | insulin resistance (glucose tolerance test) [5] | GAPDH activity [6] | skin allograft rejection compared to salicylic acid [7] | survival of grafted skin versus control group [7] | rate of weight gain ([8]; mice fed high-fat diet, 29 weeks) | dose dependence of the effect on obesity ([8]; mouse, in vivo) | fat content (MRI) [9] | body temperature ([10]; HFD with SANA versus ND mice and HFD mice) | thermogenesis ([10]; mouse, in vivo) | thermogenesis [11] | weight loss [11]
1 | O=C(O)c1ccccc1O [SA, salicylic acid, reference compound] | not by SA | cannot inhibit | cannot inhibit |  |  |  |  |  |  |  |  |  |  |  |  | 
2 | O=C(O)c1cc(/C=C/[N+](=O)[O-])ccc1O [SANA, 2-hydroxy-5-(2-nitroethenyl)benzoic acid] | induction | potent inhibitor | potent inhibitor | 182±6 | decreases | reverses insulin resistance | does not inhibit | significant reduction in skin allograft rejection | prolonged survival of grafted skin | reduced the rate of weight gain | dose response effect | induces loss of fat content | higher body temperatures than that of ND mice and HFD mice | inducing thermogenesis | does not induce | does not induce
